Assay results reported in patent US6297230A, “Cyanoaziridines for treating cancer” (priority 2000, dated 2001).
Converted amounts (≈) assume the structure as drawn.

How the values were obtained:
MCF-7/MITOX cells = assay: In vitro antitumor activity, MCF-7/MITOX; format: cell-based; details: Homo sapiens, MCF7/Mitox; MCF-7 breast, mitoxantrone resistant
Description: (§1) 1) in vitro tumor cell viability assays using MTT and SRB dye reaction endpoints.
(§2) Sulforhodamine B (SRB) Assay for Adherent Tumor Cells
(§3) Sulforhodamine B (SRB) is a protein binding aminoxanthene dye with two sulfonic acid groups. (Lillie, R. D., H. J. Conn's Biological Stains, 9th Ed., Baltimore; Williams & Wilkins, 1977.) It quantitates whole cell protein content by the intensity of dye staining and relates this to the number of viable cells. […] The SRB assay is used for cells which normally adhere to surfaces (in this case plastic culture flasks or petri dishes) as part of their requirement for growth and division in vitro. The SRB assay is currently used by the National Cancer Institute in the anticancer drug screening program. (Skehan, et al., J Natl Cancer Inst 82:1107-1112, 1990; Rubinstein, et al., J Natl Cancer Inst 82:1113-1118, 1990.) Methodologic comparisons have shown that SRB results are linear for the number of tumor cells over a 100-fold range, and for protein content determined by a modified Lowry method or Standard Bradford (Bradford, M., Anal Biochem 72:248-254, 1976) methods. […] (Lillie, R. D., H. J. Conn's Biological Stains, 9th Ed., Baltimore; Williams & Wilkins, 1977.)
(§4) Cell cultures of 10^3 -10^7 cells growing in 96-well plastic microtiter plates are fixed with 50% trichloroacetic acid (TCA) for 30 minutes at 4° C. The cells are then stained with 0.4% (w/v) sulforhodamine B (SRB) dissolved in 1% acetic acid. Unbound dye is removed by 4 washes with 1% acetic acid, and protein-bound dye is extracted with 10 mM unbuffered Tris® base [tris(hydroxymethyl)aminomethane]. The optical density (OD) of this extracted solution is measured at […] in a microtiter plate ultraviolet absorbance detector. Cell viability is expressed as percent of control by dividing the optical densities and multiplying the result by 100.
(§5) Microculture Tetrazolium (MTT) Assay for Tumor Cells
(§6) Tumors are disaggregated into single cell suspensions using mechanical, hypoosmotic, and/or enzymatic (trypsin) methods. The cells are plated at a concentration of 3-5×10^4 per […] well into plastic 96-well plates. Growth medium containing 5-10% (vol/vol) heat-inactivated fetal bovine serum and penicillin/streptomycin (both […]) are added prior to incubation at 37° C. for 6 days. Afterwards the medium containing the drug is removed, the cells are centrifuged in fresh medium or phosphate-buffered saline (pH 7.4). A tetrazolium dye, […]-2,5-diphenyl tetrazolium (MTT), is then added. (Mossman, T., J Immunol 65:55-63, 1983.) This dye forms a colored formazan product upon activation by mitochondrial reductases in viable cells. Typically, the formazan product is solubilized in acid-propanol or DMSO. The intensity of the color is proportional to viable cell numbers and this is quantitated by spectrophotometric absorbance at 570 nm on a micro ELISA plate reader. The results are calibrated in % control absorbance from untreated tumor cells. (Alley, et al., Cancer Res 48:589-601, 1988.)
(§7) Table 3 gives the potencies of the new aziridine-1-carboxamides in a panel of human and murine tumor cells in culture. The tumor cell lines in this table are selected to represent a range of histological and growth phenotypes. Their characteristics are described below.
(§8) 1.3 MCF-7/D40 and MCF-7/MITOX cell lines were developed by chronic exposure in vitro to increasing concentrations of the DNA-intercalating antitumor agents doxorubicin and mitoxantrone, respectively. […] The MCF-7/D40 cells express the cell membrane efflux pump, P-glycoprotein and are over 40-fold resistant to doxorubicin, mitoxantrone and the vinca alkaloids, vinblastine and vincristine.

MCF-7/D40 cells = assay: In vitro antitumor activity, MCF-7/D40; format: cell-based; details: Homo sapiens, MCF7; MCF-7 breast, D40 (40-fold doxorubicin resistant)
Description: as §1, §2, §3, §4, §5, §6, §7, §8

[1] = Body weight and lethality in SCID mice treated with AMP-404; format: in vivo
Protocol: The SCID mouse colony is maintained in a barrier facility with specially filtered air, autoclaved (sterilized) food and water and protective handling precautions (gloves, mask, gown) to prevent inadvertent infection. For tumor studies, human tumor cells are grown in vitro, harvested, counted and injected subcutaneously into the front flank area. Tumor cell innocula range from 10^6 -2×10^7 cells/mouse. Palpable tumors begin to develop after 1-3 weeks and sizes are determined by caliper measure of the widest perpendicular diameters. These dimensions are converted to mass using the formula: […]
Drug treatments are given by intravenous (IV) or intraperitoneal (IP) injection beginning 24 hours after tumor implantation (day 1). […] Drug therapy began 1 day later with AMP-404 dissolved in a water-miscible co-solvent system containing (per mL): benzyl alcohol 30 mg; polysorbate 80 mw, 80 mg; polyethylene glycol 300 mw, 650 mg; and q.s. to 1.0 mL in absolute ethanol. The daily dose was either 50 mg/kg or 100 mg/kg. Therapy was continued daily for […] and tumors were measured three times per week up to the 7 week ending period (two weeks after stopping drug therapy).

tumor cell line panel = assay: Panel of tumor cell lines in vitro; format: cell-based, human and murine; details: all 3 MCF-7 breast lines and parental WiDr colon
Protocol: as §1, §2, §4, §6
Table 3 gives the potencies of the new aziridine-1-carboxamides in a panel of human and murine tumor cells in culture. […]

WiDr colon cancer cells = assay: In vitro antitumor activity, WiDr colon; format: cell-based; details: Homo sapiens
Description: as §1, §2, §3, §4, §5, §6, §7
2.1 WiDr: The adenocarcinoma cell line WiDr was originally isolated by Noguchi, et al. from a primary colon tumor specimen from a patient with advanced colon carcinoma. (Noguchi, et al, In Vitro 35(6):401-407, 1979.) The WiDr MITOX cell line was developed for mitoxantrone resistance by growth in serially elevated concentration of mitoxantrone. […] (Dalton, et al., Cancer Res 48:1882-1888, 1988.)

Question: With `CNC(=O)N1CC1C#N` (centres unmarked) [AMP 403, 2-Cyanoaziridine-1-(N-methyl)carboxamide] as the compound, how does the IC50 (MCF-7/MITOX cells) read?
Answer: 2.3 µg/mL (≈ 18.4 µM)

Question: And the IC50 (MCF-7/D40 cells)?
Answer: 2.1 µg/mL (≈ 16.8 µM)

Question: Which Weight loss ([1]; 50 mg/kg daily) does the source give for `N#CC1CN1C(=O)Nc1ccccc1` (centres unmarked) [AMP 404, 2-Cyanoaziridine-1-(N-phenyl)carboxamide] here?
Answer: no apparent weight loss

Question: And the “Mean body weight loss compared to control” value ([1]; 100 mg/kg daily)?
Answer: 15-20%

Question: What about the Drug-induced lethality ([1]; mouse, in vivo) of the same compound?
Answer: no drug-induced lethality

Question: And the IC50 (MCF-7/MITOX cells)?
Answer: 0.8 µg/mL (≈ 4.27 µM)

Question: And the “Tumor cell sensitivity in solid tumor lines” value (tumor cell line panel)?
Answer: tumor cell sensitivity increased

Question: And the IC50 (WiDr colon cancer cells)?
Answer: 0.9 µg/mL (≈ 4.81 µM)

Question: And the IC50 (MCF-7/D40 cells)?
Answer: 0.5 µg/mL (≈ 2.67 µM)

Question: Which IC50 (MCF-7/MITOX cells) does the source give for `CCNC(=O)N1CC1C#N` (centres unmarked) [AMP 406, 2-Cyanoaziridine-1-(N-ethyl)carboxamide] here?
Answer: 1.4 µg/mL (≈ 10.1 µM)

Question: And the IC50 (WiDr colon cancer cells)?
Answer: 5.6 µg/mL (≈ 40.2 µM)

Question: What about the IC50 (MCF-7/D40 cells) of the same compound?
Answer: 2.8 µg/mL (≈ 20.1 µM)

Question: Which IC50 (MCF-7/MITOX cells) does the source give for `CC(C)(C)NC(=O)N1CC1C#N` (centres unmarked) [AMP 410, 2-Cyanoaziridine-1-(N-t-butyl)carboxamide] here?
Answer: 20.1 µg/mL (≈ 120 µM)

Question: What about the IC50 (WiDr colon cancer cells) of the same compound?
Answer: 30 µg/mL (≈ 179 µM)

Question: And the IC50 (MCF-7/D40 cells)?
Answer: 31.8 µg/mL (≈ 190 µM)

Question: What does the source list for `N#CC1CN1C(=O)NCc1ccccc1` (centres unmarked) [AMP 412, 2-Cyanoaziridine-1-(N-benzyl)carboxamide]?
Answer: IC50 (MCF-7/MITOX cells): 0.7 µg/mL (≈ 3.48 µM); IC50 (WiDr colon cancer cells): 1.1 µg/mL (≈ 5.47 µM); IC50 (MCF-7/D40 cells): 1.2 µg/mL (≈ 5.96 µM)

Question: With `N#CC1CN1C(=O)NC1CCCCC1` (centres unmarked) [AMP 413, 2-Cyanoaziridine-1-(N-cyclohexyl)carboxamide] as the compound, how does the IC50 (MCF-7/MITOX cells) read?
Answer: 1.9 µg/mL (≈ 9.83 µM)

Question: And the IC50 (WiDr colon cancer cells)?
Answer: 0.4 µg/mL (≈ 2.07 µM)

Question: What about the IC50 (MCF-7/D40 cells) of the same compound?
Answer: 1.7 µg/mL (≈ 8.8 µM)

Question: With `N#CC1CN1C(=O)Nc1ccc(F)cc1` (centres unmarked) [AMP 415, 2-Cyanoaziridine-1-[N-(4-fluorophenyl)]carboxamide] as the compound, how does the IC50 (MCF-7/MITOX cells) read?
Answer: 0.6 µg/mL (≈ 2.92 µM)

Question: What about the “Tumor cell sensitivity in solid tumor lines” value (tumor cell line panel) of the same compound?
Answer: tumor cell sensitivity increased

Question: And the IC50 (WiDr colon cancer cells)?
Answer: 0.4 µg/mL (≈ 1.95 µM)

Question: What about the IC50 (MCF-7/D40 cells) of the same compound?
Answer: 0.5 µg/mL (≈ 2.44 µM)

Question: What does the source list for `N#CC1CN1C(=O)Nc1ccc(C(F)(F)F)cc1` (centres unmarked) [AMP 416, 2-Cyanoaziridine-1-[N-(4-trifluorophenyl)]carboxamide]?
Answer: IC50 (MCF-7/MITOX cells): 0.3 µg/mL (≈ 1.18 µM); Tumor cell sensitivity in solid tumor lines (tumor cell line panel): tumor cell sensitivity increased; IC50 (WiDr colon cancer cells): 0.3 µg/mL (≈ 1.18 µM); IC50 (MCF-7/D40 cells): 0.4 µg/mL (≈ 1.57 µM)
